# Patent US20230134428A1, “FUSED HETEROARYL COMPOUNDS, AND METHODS THEREOF FOR TREATING DISEASES, DISORDERS, AND CONDITIONS RELATING TO ABERRANT FUNCTION OF A SODIUM CHANNEL” (Praxis Precision Medicines, Inc., priority 2016, published 2023)
# Biological target: T1, human NaV1.6 (hNaV1.6) (Homo sapiens, UniProt Q9UQD0)
# T1 construct: expressed in transfected cells; host or cells: HEK-293 (G418 selection)
# Assay: Modulation of late sodium current (INaL), PatchXpress electrophysiology
# Format: cell-based
# Conditions: HEK293, read-out: INaL v1.6 (1 µM, % Inhibition)
# Description: Functional characterization of exemplary compounds to modulate INaL expressed by the NaV1.6 voltage-gated sodium channel was accomplished using the PatchXpressTM high throughput electrophysiology platform (Molecular Devices, Sunnyvale, CA). HEK-293 cells expressing recombinant, human NaV1.6 (hNaV1.6)were grown in DMEM/high-glucose Dulbecco's modified, 10% FBS, 2 mM sodium pyruvate, 10 mM HEPES and 400 μg/mL G418. Cells were grown to 50% - 80% confluency prior to harvesting. Trypsinized cells were washed, allowed to recover for 1 hour and then resuspended in extracellular recording solution at a concentration of 1 × 10^6 cells/ml. The onboard liquid handling facility of the PatchXpress was used for dispensing cells and applying test compounds. Nav late currents were evoked by the application of 300 nM ATX-II. […] INaL amplitude and stability were determined by analyzing the mean current amplitude over the final 20 ms of […] pulse. […] Percent steady-state inhibition of INaL was calculated as: [([…])]*100, where INaL_compound and INaL _control represent INaL recorded in the presence or absence of compound, respectively.
# T1 sequence (Q9UQD0 whole entry): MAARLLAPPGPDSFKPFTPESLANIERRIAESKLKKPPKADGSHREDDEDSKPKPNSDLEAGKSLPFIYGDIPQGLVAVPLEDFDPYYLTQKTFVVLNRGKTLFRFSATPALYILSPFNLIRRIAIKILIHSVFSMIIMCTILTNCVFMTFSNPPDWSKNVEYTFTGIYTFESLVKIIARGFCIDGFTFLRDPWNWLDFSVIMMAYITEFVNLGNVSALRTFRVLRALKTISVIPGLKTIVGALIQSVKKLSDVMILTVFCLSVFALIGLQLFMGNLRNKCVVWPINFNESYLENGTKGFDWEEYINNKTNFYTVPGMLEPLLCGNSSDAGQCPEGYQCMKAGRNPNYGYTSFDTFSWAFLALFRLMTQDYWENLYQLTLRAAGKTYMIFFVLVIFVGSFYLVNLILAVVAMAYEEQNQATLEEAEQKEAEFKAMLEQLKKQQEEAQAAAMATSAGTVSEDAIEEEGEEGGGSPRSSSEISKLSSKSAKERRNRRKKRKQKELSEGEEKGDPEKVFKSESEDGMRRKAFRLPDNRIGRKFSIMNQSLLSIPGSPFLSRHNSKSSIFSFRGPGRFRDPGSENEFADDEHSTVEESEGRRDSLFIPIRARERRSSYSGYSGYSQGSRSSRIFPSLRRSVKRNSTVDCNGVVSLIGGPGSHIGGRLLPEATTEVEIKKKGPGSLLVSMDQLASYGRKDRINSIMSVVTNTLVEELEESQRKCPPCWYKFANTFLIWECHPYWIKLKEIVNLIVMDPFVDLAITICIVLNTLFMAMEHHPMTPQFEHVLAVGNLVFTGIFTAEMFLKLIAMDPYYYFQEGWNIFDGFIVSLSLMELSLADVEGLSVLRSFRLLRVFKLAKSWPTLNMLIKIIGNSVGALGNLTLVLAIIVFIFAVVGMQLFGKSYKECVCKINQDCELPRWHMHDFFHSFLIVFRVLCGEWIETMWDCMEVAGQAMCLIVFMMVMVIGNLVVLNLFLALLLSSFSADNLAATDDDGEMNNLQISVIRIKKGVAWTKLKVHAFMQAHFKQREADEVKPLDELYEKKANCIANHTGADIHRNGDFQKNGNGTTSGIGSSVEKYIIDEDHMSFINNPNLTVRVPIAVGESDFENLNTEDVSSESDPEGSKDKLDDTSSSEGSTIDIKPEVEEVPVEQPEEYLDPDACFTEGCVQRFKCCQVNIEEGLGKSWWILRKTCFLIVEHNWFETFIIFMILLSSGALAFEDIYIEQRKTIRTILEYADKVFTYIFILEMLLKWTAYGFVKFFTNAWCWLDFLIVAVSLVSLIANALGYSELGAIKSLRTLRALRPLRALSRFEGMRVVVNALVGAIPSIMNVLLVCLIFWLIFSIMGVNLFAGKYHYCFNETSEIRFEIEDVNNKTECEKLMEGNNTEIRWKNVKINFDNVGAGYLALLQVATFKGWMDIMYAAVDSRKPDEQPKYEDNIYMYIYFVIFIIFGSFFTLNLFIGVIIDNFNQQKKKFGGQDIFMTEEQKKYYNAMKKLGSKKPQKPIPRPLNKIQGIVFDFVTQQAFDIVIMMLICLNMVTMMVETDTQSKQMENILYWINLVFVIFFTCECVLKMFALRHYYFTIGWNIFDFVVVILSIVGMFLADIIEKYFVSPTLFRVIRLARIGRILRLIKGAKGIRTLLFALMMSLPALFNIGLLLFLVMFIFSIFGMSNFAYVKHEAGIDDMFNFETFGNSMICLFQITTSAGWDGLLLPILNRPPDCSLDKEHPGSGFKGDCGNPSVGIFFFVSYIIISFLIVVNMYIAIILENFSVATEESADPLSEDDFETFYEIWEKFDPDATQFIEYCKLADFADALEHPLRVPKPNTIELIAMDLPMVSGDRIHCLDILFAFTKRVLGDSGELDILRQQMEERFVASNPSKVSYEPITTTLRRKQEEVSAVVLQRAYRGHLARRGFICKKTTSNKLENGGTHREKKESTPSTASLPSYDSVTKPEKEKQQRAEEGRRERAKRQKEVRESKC
row,Compound,inhibition at 1 µM
1,COCc1cc(OC(F)(F)F)ccc1-c1cnc2cnc(C(F)(F)F)n2c1 [Compound 12],30 to 70%
2,FC(F)(F)c1ccc(-c2cnc3cnc(C(F)(F)F)n3c2)cc1 [Compound 18],< 30%
3,N#Cc1nc(C(F)(F)F)n2cc(-c3ccc(OCC(F)(F)F)nc3)ccc12 [Compound 19],> 70%
4,N#Cc1nc(C(F)(F)F)n2cc(-c3ccc(C4(C#N)CC4)cc3)ccc12 [Compound 20],< 30%
5,N#Cc1nc(C(F)F)n2cc(-c3ccc(OC(F)(F)F)cc3)ccc12 [Compound 21],30 to 70%
6,"Fc1cc(-c2cn3c(C(F)(F)F)ncc3cn2)cnc1OCC(F)(F)F [Compound 23, 6-[5-fluoro-6-(2,2,2-trifluoroethoxy)-3-pyridyl]-3-(trifluoromethyl)imidazo[1,5-a]pyrazine]",30 to 70%
7,FC1(F)CC(c2ncc3ncc(-c4ccc(OC(F)(F)F)cc4)cn23)C1 [Compound 24],< 30%

# Same assay, conditions: HEK293; 1 µM compound; HEK-293 cells expressing hNaV1.6; late current evoked by 300 nM ATX-II; read-out: INaL v1.6 (1 µM, % Inhibition)
row,Compound,inhibition at 1 µM
1,N#CC1(c2ccc(-c3ccc4cnc(C(F)(F)F)n4c3)cc2)CC1 [Compound 4],30 to 70%
2,FC(F)c1ncc2ncc(-c3ccc(OC(F)(F)F)cc3)cn12 [Compound 10],< 30%
3,N#CC1(c2ccc(-c3cnc4cnc(C(F)(F)F)n4c3)cc2)CC1 [Compound 13],< 30%
4,COc1cc(C2(C#N)CC2)ccc1-c1cnc2cnc(C(F)(F)F)n2c1 [Compound 17],< 30%
5,N#CC1(c2ccc(-c3cn4c(C(F)(F)F)ncc4cn3)cc2)CC1 [Compound 22],30 to 70%
6,N#Cc1nc(C(F)(F)F)n2nc(-c3ccc(OC(F)(F)F)cc3)ccc12 [Compound 25],< 30%
7,FC(F)(F)Oc1ccc(-c2ccc3cnc(C4CC4(F)F)n3c2)cc1 (stereo not shown) [Compound 26],30 to 70%
8,N#Cc1nc(C(F)(F)F)n2cc(-c3ccc(C(F)(F)F)cc3)ncc12 [Compound 29],> 70%
9,N#Cc1nc(C2CC2(F)F)n2cc(-c3ccc(OC(F)(F)F)cc3)ccc12 (stereo not shown) [Compound 30],> 70%
10,"N#Cc1nc(C(F)(F)F)n2cc(-c3cnc(OCC(F)(F)F)c(F)c3)ncc12 [Compound 31, 6-[5-fluoro-6-(2,2,2-trifluoroethoxy)-3-pyridyl]-3-(trifluoromethyl)imidazo[1,5-a]pyrazine-1-carbonitrile]",30 to 70%
11,"Fc1cc(-c2cnc3cnc(C(F)(F)F)n3c2)cnc1OCC(F)(F)F [Compound 32, 3-[5-fluoro-6-(2,2,2-trifluoroethoxy)-3-pyridyl]-6-(trifluoromethyl)imidazo[1,5-a]pyrimidine]",30 to 70%
12,"N#Cc1nc(C(F)(F)F)n2cc(-c3cnc(OCC(F)(F)F)c(F)c3)ccc12 [Compound 33, 6-[5-fluoro-6-(2,2,2-trifluoroethoxy)-3-pyridyl]-3-(trifluoromethyl)imidazo[1,5-a]pyridine-1-carbonitrile]",> 70%

# Results, then the compound that gave them:
row,inhibition at 1 µM,Compound
1,> 70%,COc1cc(OC(F)(F)F)ccc1-c1ccc2cnc(C(F)(F)F)n2c1 [Compound 1]
2,30 to 70%,FC(F)(F)COc1ccc(-c2ccc3cnc(C(F)(F)F)n3c2)cn1 [Compound 2]
3,30 to 70%,COC(C)(C)c1ccc(-c2ccc3cnc(C(F)(F)F)n3c2)cc1 [Compound 3]
4,30 to 70%,FC(F)(F)Oc1ccc(-c2cn3c(C(F)(F)F)ncc3cn2)cc1 [Compound 7]
5,30 to 70%,FC(F)(F)Oc1ccc(-c2cnc3cnc(C(F)(F)F)n3c2)cc1 [Compound 8]
6,30 to 70%,FC(F)(F)Oc1ccc(-c2ccc3cnc(C(F)(F)F)n3n2)cc1 [Compound 9]
7,< 30%,N#Cc1nc(C(F)(F)F)n2cc(-c3ccc(OC(F)(F)F)cc3)cnc12 [Compound 11]
8,30 to 70%,Cc1nc(C(F)(F)F)n2cc(-c3ccc(OC(F)(F)F)cc3)cnc12 [Compound 14]
9,> 70%,COCc1cc(OC(F)(F)F)ccc1-c1cn2c(C(F)(F)F)ncc2cn1 [Compound 15]
10,> 70%,COCc1cc(OC(F)(F)F)ccc1-c1ccc2c(C#N)nc(C(F)(F)F)n2c1 [Compound 16]
11,> 70%,N#Cc1nc(C(F)(F)F)n2cc(-c3ccc(OC(F)(F)F)cc3)ncc12 [Compound 27]
12,> 70%,COCc1cc(OC(F)(F)F)ccc1-c1cn2c(C(F)(F)F)nc(C#N)c2cn1 [Compound 28]
